Results reported in patent US20110177161A1, “PHARMACEUTICAL COMPOSITIONS OF [5(S)-(2'-HYDROXYETHOXY)-20(S)-CAMPTOTHECIN” (DR. REDDY'S LABORATORIES LIMITED, priority 2007, published 2011).
Marks after values point to notes of the source that are not given here.

What was measured:
[1] = Physicochemical characteristics of drug substance, powder composition, blend and lyophilized product
Source text: Another indication of the physicochemical characteristics of the powder composition is the density properties such as bulk and tapped density. Bulk density is described as untapped or tapped. Untapped bulk density of a substance is the undisturbed packing density of that substance and tapped bulk density relates to the packing density after tapping a bed of substance until no change in the packing density is seen. Bulk density and tapped density can be determined using compendial bulk density apparatus, the method being given in United States Pharmacopeia 29, United States Pharmacopeial Convention, Inc., Rockville, Md., 2005, at pages 2638-2639. A higher bulk density indicates a dense material allowing a higher dose to be filled into a given size capsule for example. The powder compositions can have bulk densities from about 0.8 g/ml to about 0.2 g/ml, or from about 0.6 g/ml to about 0.2 g/ml.
The Hausner ratio is a measure of inter-particle friction and the potential powder arch or bridge strength and stability (Hausner, H. H. Friction conditions in a mass of metal powders. International Journal of Powder Metallurgy 1967, 3 (4), pages 7-13). It has been widely used to estimate the flow properties of powders, blends, granules and other such particles or aggregates and is expressed as the ratio of tapped bulk density to the untapped bulk density of the substance. Hausner ratio used herein is defined as ratio of tapped to untapped bulk densities. A Hausner ratio of <1.2 indicates good flow while ratio >1.5 indicate poor flow. The powder compositions can have a Hausner ratio less than 1.5 or less than 1.2.
Carr index as used herein is defined as the percent compressibility which is a percentage ratio of the difference between tapped bulk density and initial bulk density to tapped bulk density. Carr index values between 5-15% represent materials with excellent flowability, values between 18-21% represent fair-flowability and values above 40% represent very poor flowability. The powder compositions of the invention can have Carr index values less than 40% or less than 21% or less than 15%.
Table 1 describes the physicochemical characteristics of DRF-(5S,20S)-1042, which is used in the examples below.
The powder composition and formulation blend along with their placebo have been characterized for their physical parameters and the data has been tabulated in table 11.
After completion of lyophilization cycle the vials were sealed using 20 mm aluminum flip-off seals. The resulting lyophilized product was tested for various parameters as per Table 19.

[2] = Solution stability in different alkaline solutions (HPLC impurities); type: physicochemical; design: C = Dimer impurity: unit not given beside the values
[3] = Arginine neutralized, 24 hours RT
[4] = Meglumine neutralized, 24 hours RT

CC[C@@]1(O)C(=O)OCc2c1cc1n(c2=O)[C@@H](OCCO)c2cc3ccccc3nc2-1 [DRF-(5S,20S)-1042, 5(S)-(2′-hydroxyethoxy)-20(S)-camptothecin]
Bulk density ([1]; drug substance): 0.17 g/mL | Carr Index ([1]; drug substance): 46.5% | Hausner ratio ([1]; drug substance): 1.9 | Moisture content ([1]; drug substance): 0.2 % w/w | Tapped density ([1]; drug substance): 0.31 g/mL | Particle size D10 ([1]; lot used for the examples): D10 = 3.6 μm | Particle size D50 ([1]; lot used for the examples): D50 = 10.9 μm | Particle size D90 ([1]; lot used for the examples): D90 = 34.0 μm | A = DRF (5R,20S)-1042 ([2]; Arginine as is, 24 hours RT): 5.22 | B = Decarboxylated impurity ([2]; Arginine as is, 24 hours RT): 0.19 | C = Dimer impurity ([2]; Arginine as is, 24 hours RT): 0.95 | D = Total impurities excluding DRF (5R,20S)-1042 ([2]; Arginine as is, 24 hours RT): 3.23 | A = DRF (5R,20S)-1042 ([2]; Arginine as is, Initial): 3.45 | B = Decarboxylated impurity ([2]; Arginine as is, Initial): 0.06 | C = Dimer impurity ([2]; Arginine as is, Initial): 0.88 | D = Total impurities excluding DRF (5R,20S)-1042 ([2]; Arginine as is, Initial): 2.50 | A = DRF (5R,20S)-1042 [2, 3]: 3.26 | B = Decarboxylated impurity [2, 3]: 0.18 | C = Dimer impurity [2, 3]: 0.93 | D = Total impurities excluding DRF (5R,20S)-1042 [2, 3]: 3.11 | A = DRF (5R,20S)-1042 ([2]; Arginine neutralized, Initial): 3.38 | B = Decarboxylated impurity ([2]; Arginine neutralized, Initial): 0.04 | C = Dimer impurity ([2]; Arginine neutralized, Initial): 0.9 | D = Total impurities excluding DRF (5R,20S)-1042 ([2]; Arginine neutralized, Initial): 2.64 | A = DRF (5R,20S)-1042 ([2]; Meglumine as is, 24 hours RT): 2.30 | B = Decarboxylated impurity ([2]; Meglumine as is, 24 hours RT): 0.33 | C = Dimer impurity ([2]; Meglumine as is, 24 hours RT): 7.17* | D = Total impurities excluding DRF (5R,20S)-1042 ([2]; Meglumine as is, 24 hours RT): 11.1 | A = DRF (5R,20S)-1042 ([2]; Meglumine as is, Initial): 2.77 | B = Decarboxylated impurity ([2]; Meglumine as is, Initial): 0.21 | C = Dimer impurity ([2]; Meglumine as is, Initial): 12.04 | D = Total impurities excluding DRF (5R,20S)-1042 ([2]; Meglumine as is, Initial): 21.15 | A = DRF (5R,20S)-1042 [2, 4]: 2.57 | B = Decarboxylated impurity [2, 4]: 0.33 | C = Dimer impurity [2, 4]: 1.47 | D = Total impurities excluding DRF (5R,20S)-1042 [2, 4]: 5.02 | A = DRF (5R,20S)-1042 ([2]; Meglumine neutralized, Initial): 1.05 | B = Decarboxylated impurity ([2]; Meglumine neutralized, Initial): 0.03 | C = Dimer impurity ([2]; Meglumine neutralized, Initial): 0.54 | D = Total impurities excluding DRF (5R,20S)-1042 ([2]; Meglumine neutralized, Initial): 1.49 | A = DRF (5R,20S)-1042 ([2]; NaOH as is, 24 hours RT): 101.79 | B = Decarboxylated impurity ([2]; NaOH as is, 24 hours RT): 0.02 | C = Dimer impurity ([2]; NaOH as is, 24 hours RT): 0.48 | D = Total impurities excluding DRF (5R,20S)-1042 ([2]; NaOH as is, 24 hours RT): 1.95 | A = DRF (5R,20S)-1042 ([2]; NaOH as is, Initial): 75.40 | B = Decarboxylated impurity ([2]; NaOH as is, Initial): 0.02 | C = Dimer impurity ([2]; NaOH as is, Initial): 0.35 | D = Total impurities excluding DRF (5R,20S)-1042 ([2]; NaOH as is, Initial): 1.81 | A = DRF (5R,20S)-1042 ([2]; NaOH neutralized, 24 hours RT): 56.26 | B = Decarboxylated impurity ([2]; NaOH neutralized, 24 hours RT): 0.02 | C = Dimer impurity ([2]; NaOH neutralized, 24 hours RT): 0.37 | D = Total impurities excluding DRF (5R,20S)-1042 ([2]; NaOH neutralized, 24 hours RT): 2.22 | A = DRF (5R,20S)-1042 ([2]; NaOH neutralized, Initial): 56.75 | B = Decarboxylated impurity ([2]; NaOH neutralized, Initial): 0.02 | C = Dimer impurity ([2]; NaOH neutralized, Initial): 0.38 | D = Total impurities excluding DRF (5R,20S)-1042 ([2]; NaOH neutralized, Initial): 1.81
